Earlier results, collected in paper PMC10814857, “Functional Classification and Interaction Selectivity Landscape of the Human SH3 Domain Superfamily” (Cells, 2024).
Like-named read-outs stand apart in the source and are kept apart here.

Key:
SNX9 SH3 domain = details: cited from earlier work
SPTAN1 SH3 domain = molecular target: SPTAN1 SH3 domain; parameters: method as in ref [63] (a number printed in a supplementary file, which may have a reference list of its own: not looked up in the article's list); details: SPTAN1, FL, Table S4; ref [63]; cited from earlier work
LCK SH3 domain = details: FL, Table S4, ref [74]; cited from earlier work
CRK-1 SH3 domain = molecular target: CRK-1 SH3 domain; parameters: method as in ref [70] (a number printed in a supplementary file, which may have a reference list of its own: not looked up in the article's list); details: CRK-1, ITC, Table S4; ref [70]; cited from earlier work
SH3PXD2B-1/2 SH3 domains [1] = molecular target: SH3PXD2B-1/2 SH3 domains; parameters: method as in ref [68] (a number printed in a supplementary file, which may have a reference list of its own: not looked up in the article's list); details: SH3PXD2B-1/2, MST, Table S4; ref [68]; cited from earlier work
SH3PXD2B-1/2 SH3 domains [2] = molecular target: SH3PXD2B-1/2 SH3 domains; parameters: method as in ref [68] (a number printed in a supplementary file, which may have a reference list of its own: not looked up in the article's list); details: SH3PXD2B-1/2, FL, Table S4; ref [68]; cited from earlier work
[3] = molecular target: BAIAP2L1 (IRTKS) SH3 domain; details: ITC, Table S4, ref [76]; cited from earlier work
Protocol: page 6: […][…] […] PAK2 […] PXXXPR PXXXPR 1.05 ITC [34] TRSVI ITSN1-2 Synthetic […] Exceptional [W/F][R/W]xSx[A/ 53 ITC [29] peptide G][F/Y][L/V]xGP[ W/L] NCK1-2 N-WASP GP[…] … 147 HSQC [64] VA[…] 199 PLCG1 SOS1 AAPV[…] … 0.20mM SPR [75] AADS[…] 0.40mM AAES[…] 0.70mM AAIA[…] 0.28mM BAIAP2L1 EspFUR45 IPP[…] … 0.5 nM ITC [76] (IRTKS) 9 SORBS2- Synthetic […] Exceptional XRXGXAYLXYVX 38 ITC [29] 1 peptide Synthetic RL[…](L/P) ...

FYN SH3 domain [4] = molecular target: FYN SH3 domain; parameters: method as in ref [20] (a number printed in a supplementary file, which may have a reference list of its own: not looked up in the article's list); details: ITC, Table S4, ref [20]; cited from earlier work
FYN SH3 domain [5] = molecular target: FYN SH3 domain; parameters: method as in ref [20] (a number printed in a supplementary file, which may have a reference list of its own: not looked up in the article's list); details: NMR, Table S4, ref [20]; cited from earlier work
FYN SH3 domain [6] = molecular target: FYN SH3 domain; parameters: method as in ref [20] (a number printed in a supplementary file, which may have a reference list of its own: not looked up in the article's list); details: CD, Table S4, ref [20]; cited from earlier work
AMPH SH3 domain = details: g-radiation, Table S4, ref [80]; cited from earlier work
Protocol: (§1) page 6: […] […] […] PAK2 […] PXXXPR PXXXPR 1.05 ITC [34] TRSVI ITSN1-2 Synthetic […] Exceptional [W/F][R/W]xSx[A/ 53 ITC [29] peptide G][F/Y][L/V]xGP[ W/L] NCK1-2 N-WASP GP[…] … 147 HSQC [64] VA[…] 199 PLCG1 SOS1 AAPV[…] … 0.20mM SPR [75] AADS[…] 0.40mM AAES[…] 0.70mM AAIA[…] 0.28mM BAIAP2L1 EspFUR45 IPP[…] … 0.5 nM ITC [76] (IRTKS) 9 SORBS2- Synthetic […] Exceptional XRXGXAYLXYVX 38 ITC [29] 1 peptide Synthetic RL[…](L/P) ...

HCK SH3 domain = details: SPR, Table S4, ref [72]; cited from earlier work
FYN SH3 domain [7] = details: SPR, Table S4, ref [72]; cited from earlier work
CD2AP-1 (CMS) SH3 domain = details: SPR, Table S4, ref [50, 82]; cited from earlier work
From the text: page 7: […] E CD2AP-1 CD2 […] PX(P/A)XXR PXXXPR 100 SPR [50, (CMS) G 82] SH3KBP1- 1 (CIN85) 1 The underlined residues in the second column represent motifs associated with the published consensus PRMs, while the residues highlighted in green represent the proposed consensus PRM identified in the current study. 2 CD: Circular Dichroism Spectroscopy FL: fluorescence-based titrations; HSQC: Heteronuclear Single Quantum Coherence; ITC: Isothermal titration calorimetry; MST: microscale thermophoresis 7

p85A SH3 domain = molecular target: p85A SH3 domain; parameters: method as in ref [62] (a number printed in a supplementary file, which may have a reference list of its own: not looked up in the article's list); details: FL, Table S4, ref [62]; cited from earlier work
PACSIN1 SH3 domain = molecular target: PACSIN1 SH3 domain; parameters: method as in ref [61] (a number printed in a supplementary file, which may have a reference list of its own: not looked up in the article's list); details: PACSIN1, HSQC, Table S4; ref [61]; cited from earlier work
PACSIN2 SH3 domain = molecular target: PACSIN2 SH3 domain; parameters: method as in ref [61] (a number printed in a supplementary file, which may have a reference list of its own: not looked up in the article's list); details: PACSIN2, HSQC, Table S4; ref [61]; cited from earlier work
PACSIN3 SH3 domain = molecular target: PACSIN3 SH3 domain; parameters: method as in ref [61] (a number printed in a supplementary file, which may have a reference list of its own: not looked up in the article's list); details: PACSIN3, HSQC, Table S4; ref [61]; cited from earlier work
STAM2 SH3 domain = details: STAM2, FL, Table S4; ref [52]; cited from earlier work
Protocol: as §1

ITSN1-2 SH3 domain = details: ITSN1-2, ITC, Table S4; ref [29]; cited from earlier work
Protocol: as §1

AERLIPRRPAPPVPVPARIPSPR
Kd (SNX9 SH3 domain): 0.3 µM

ASYPPVPPP [published Peptide41 (SPTAN1 ligand)]
Kd (SPTAN1 SH3 domain): 160 µM

ATLDPGMPTPPLPPRPANLG [published Tip peptide]
Kd (LCK SH3 domain): 16.8 µM

DNSPPPALPPKKRQSAPS [published C3G peptide]
Kd (CRK-1 SH3 domain): ~2 µM

GSHMGDAKQRSPKMRQRPPPRRDMTIPRGLNLPKPPIPPQVE [published SH3PXD2B peptide]
Kd (SH3PXD2B-1/2 SH3 domains [1]): 15 µM | Kd (SH3PXD2B-1/2 SH3 domains [2]): 11 µM

IPPAPNWPAPTPP [published peptide EspFUR45]
Kd [3]: 0.0005 µM

PPRPLPVAPGSSKT [published peptide P2L]
Kd (FYN SH3 domain [4]): 16 µM | Kd (FYN SH3 domain [5]): 50 µM | Kd (FYN SH3 domain [6]): 28 µM

PSRPNR [published Dynamin-I peptide]
Kd (AMPH SH3 domain): 0.19 µM

PVRPQVPLRPMT [published Nef peptide]
Kd (HCK SH3 domain): 91 µM | Kd (FYN SH3 domain [7]): 202 µM

QKGPPLPRPRVQPKPPHG [published CD2 peptide]
Kd (CD2AP-1 (CMS) SH3 domain): 100 µM

RKLPPRPSK [published synthetic peptide (p85A ligand)]
Kd (p85A SH3 domain): 9.1 µM

TKGPAPNPPPVLKV [published TRPV4 peptide]
Kd (PACSIN1 SH3 domain): 51.6 µM | Kd (PACSIN2 SH3 domain): 12.7 µM | Kd (PACSIN3 SH3 domain): 68.6 µM

TPMVNRENKPP [published UBPY peptide]
Kd (STAM2 SH3 domain): 27 µM

WRDSSGYVMGPW [published synthetic peptide (ITSN1-2 ligand)]
Kd (ITSN1-2 SH3 domain): 53 µM
